Data as given in PubChem BioAssay (NCI).
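Briefly, cells in 96-well plates were exposed to five compound concentrations for 48 h, and endpoints were estimated by linear interpolation. Here, GI50 denotes the concentration required for 50% inhibition of growth. TGI: concentration producing complete growth inhibition.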

Key:
Test in all cases: NCI tumour cell line growth inhibition, 48 h
BT-549 breast = test system: BT-549 breast
HS 578T breast = test system: HS 578T breast
MCF7 breast = test system: MCF7 breast
MDA-MB-435 = test system: MDA-MB-435
NCI/ADR-RES ovarian = test system: NCI/ADR-RES ovarian
RXF-631 renal = test system: RXF-631 renal
XF 498 CNS = test system: XF 498 CNS
MDA-N = test system: MDA-N
HOP-18 NSCLC = test system: HOP-18 NSCLC

| SMILES | TGI (BT-549 breast) | TGI (HS 578T breast) | TGI (MCF7 breast) | TGI (MDA-MB-435) | TGI (NCI/ADR-RES ovarian) | TGI (RXF-631 renal) | TGI (XF 498 CNS) | TGI (HOP-18 NSCLC) | further results |
| --- | --- | --- | --- | --- | --- | --- | --- | --- | --- |
| Cn1cc(-c2csc(-c3cn(C)c4ncccc34)n2)c2ccccc21 | 26.2 µM | 18.8 µM | > 100 µM | 0.186 µM | 3.47 µM |  |  |  | GI50 (BT-549 breast): 0.409 µM; GI50 (HS 578T breast): 0.451 µM; GI50 (MCF7 breast): 0.322 µM; GI50 (MDA-MB-435): 0.0414 µM; GI50 (NCI/ADR-RES ovarian): 0.135 µM |
| CC(=O)OCC1OC(n2cnc3c(I)nc(I)nc32)C(OC(C)=O)C1OC(C)=O (stereo not given) |  |  |  |  |  | 34.9 µM | 35.9 µM |  |  |
| CC(=O)C(CN1CCOCC1)C(c1ccccc1)c1c(O)c2ccccc2oc1=O (stereo not given) | > 100 µM | > 100 µM | > 100 µM | > 100 µM | > 100 µM |  |  |  | TGI (MDA-N): > 100 µM |
| Clc1ccc(C2=NN(c3ccccc3)C3c4cc(Br)ccc4OCC23)cc1 (stereo not given) |  |  |  |  |  | > 100 µM | > 100 µM | > 100 µM |  |
| COC(=O)C1(c2ccc(OC)cc2)NC(c2ccccc2)C2C(=O)N(c3ccc(OC)cc3)C(=O)C21 (stereo not given) |  |  |  |  |  | > 100 µM | > 100 µM |  |  |
| COC1C2c3ccccc3C(C#N)(Cc3ccc4c(c32)OCO4)N1C(=O)c1ccccc1 (stereo not given) |  |  |  |  |  | > 100 µM | 98.1 µM | > 100 µM |  |
| Cc1ccc(C)c(NC(=O)CCC(=O)CC(=O)C(C)(C)C)c1 |  |  |  |  |  |  | > 100 µM | > 100 µM |  |
| S=c1nc(/C=C/c2ccc(Cl)c(Cl)c2)[nH][nH]1 | > 100 µM | > 100 µM | > 100 µM | > 100 µM | > 100 µM |  | 95.5 µM |  | GI50 (BT-549 breast): 31.3 µM; GI50 (HS 578T breast): > 100 µM; GI50 (MCF7 breast): > 100 µM; GI50 (MDA-MB-435): 86.7 µM; GI50 (NCI/ADR-RES ovarian): > 100 µM |
| C[CH2][Sn]([CH2]C)([O]C(=O)c1cc(OC)c(OC)c(OC)c1)[O][Sn]([CH2]C)([CH2]C)[O]C(=O)c1cc(OC)c(OC)c(OC)c1 |  |  |  |  |  | 53.7 µM | 31.3 µM | 42.4 µM | GI50 (HOP-18 NSCLC): 22.2 µM; GI50 (RXF-631 renal): 24.5 µM; GI50 (XF 498 CNS): 16.9 µM |
| C=C1C(=O)C23C(O)C1CCC2C12CO[C@]3(O)[C@@H](O)C1C(C)(C)CCC2O (stereo not given in full) |  |  |  |  |  | 34.5 µM | 5.24 µM | 25.5 µM |  |
| CC1(C)CC[C@]2(C(=O)O)CCC3(C)C(=CCC4[C@@]5(C)CC[C@H](OC6OCC(O)C(O)C6OC6OC(CO)C(O)C(O)C6O)C(C)(C)C5CC[C@]43C)C2C1 (stereo not given in full) |  |  |  |  |  | 3.21 µM | 4.59 µM | 3.48 µM |  |
| C#CCSc1nnnn1-c1ccc(Br)c(C)c1 | > 100 µM | 26.9 µM | > 100 µM | 55.8 µM | 72.7 µM |  |  |  | GI50 (BT-549 breast): 48.7 µM; GI50 (HS 578T breast): 2.86 µM; GI50 (MCF7 breast): 28.4 µM; GI50 (MDA-MB-435): 17.9 µM; GI50 (NCI/ADR-RES ovarian): 17.4 µM |
| CCN1CCC(O)(c2ccccc2)C(C(=O)c2ccccc2)C1 (stereo not given) |  |  |  |  |  |  | 29.9 µM | 28 µM |  |
| O=C(/C=C/c1cccnc1)/C=C/c1cccnc1 | 4.62 µM | 17.3 µM | 1.84 µM | 4.84 µM | 30.6 µM |  |  |  | GI50 (BT-549 breast): 1.73 µM; GI50 (HS 578T breast): 3.44 µM; GI50 (MCF7 breast): 0.379 µM; GI50 (MDA-MB-435): 1.78 µM; GI50 (NCI/ADR-RES ovarian): 4.08 µM |
| COc1ccc(Br)c(CCCCC(=O)O)c1 |  |  |  |  |  |  | > 100 µM | > 100 µM |  |
